From PubChem BioAssay AID328 (DTP/NCI, 2004)
Values joined by “and” are separate entries in the source; they are usually repeats but may differ in a detail not shown here. Equal entries are not always repeated. Inconclusive results and toxic doses are left out.

Test system: BDF1 mice, P388 leukemia ip, median survival T/C
Assay: NCI In Vivo Anticancer Drug Screen. Data for tumor model P388 Leukemia (intraperitoneal) in B6D2F1 (BDF1) mice
Details: endpoint: median survival time, higher = longer survival
In short: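 Survival ratio, drug arm over vehicle arm, in mice with a transplanted tumour.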

[1] = dose: 50.0 mg/kg/injection, schedule: Q01DX009 (ip), vehicle: saline with Tween-80
[2] = dose: 100.0 mg/kg/injection, schedule: Q01DX009 (ip), vehicle: saline with Tween-80
[3] = dose: 50.0 mg/kg/injection, schedule: Q04DX003 (ip), vehicle: saline
[4] = dose: 50.0 mg/kg/injection, schedule: Q04DX003 (ip), vehicle: saline with Tween-80
[5] = dose: 100.0 mg/kg/injection, schedule: Q04DX003 (ip), vehicle: saline with Tween-80
[6] = dose: 200.0 mg/kg/injection, schedule: Q04DX003 (ip), vehicle: saline with Tween-80
[7] = dose: 400.0 mg/kg/injection, schedule: Q04DX003 (ip), vehicle: saline with Tween-80

CN(C)c1ccc(/C=C\c2ccnc3c([N+](=O)[O-])cccc23)cc1
T/C [1]: 115 % of control
T/C [2]: 97 % of control
T/C (dose: 200.0 mg/kg/injection, schedule: Q01DX009 (ip), vehicle: saline with Tween-80): 92 % of control

C1=CN(c2ccc(/C=C\c3ccnc4ccccc34)cc2)C=CN1c1ccc(/C=C\c2ccnc3ccccc23)cc1
T/C [1]: 119 % of control

C=CCC#N
T/C (dose: 12.5 mg/kg/injection, schedule: Q01DX009 (ip), vehicle: saline): 95 % of control
T/C (dose: 25.0 mg/kg/injection, schedule: Q01DX009 (ip), vehicle: saline): 95 % of control
T/C (dose: 25.0 mg/kg/injection, schedule: Q04DX003 (ip), vehicle: saline): 100 % of control
T/C [3]: 95 % of control

COC(=O)C1Cc2c([nH]c3ccccc23)CN1 (stereo not drawn)
T/C (dose: 10.0 mg/kg/injection, schedule: Q01DX009 (ip), vehicle: saline): 116 % of control
T/C (dose: 10.0 mg/kg/injection, schedule: Q04DX003 (ip), vehicle: saline): 95 % of control
T/C (dose: 20.0 mg/kg/injection, schedule: Q01DX009 (ip), vehicle: saline): 100 % of control
T/C (dose: 20.0 mg/kg/injection, schedule: Q04DX003 (ip), vehicle: saline): 109 % of control
T/C (dose: 40.0 mg/kg/injection, schedule: Q01DX009 (ip), vehicle: saline): 112 % of control
T/C (dose: 40.0 mg/kg/injection, schedule: Q04DX003 (ip), vehicle: saline): 95 % of control

Cn1c2c(sc1=O)CCC2
T/C [3]: 100 % of control
T/C (dose: 100.0 mg/kg/injection, schedule: Q04DX003 (ip), vehicle: saline): 87 % of control
T/C (dose: 200.0 mg/kg/injection, schedule: Q04DX003 (ip), vehicle: saline): 100 % of control

CN1CCN(C)P1OCC(F)(F)F
T/C (dose: 25.0 mg/kg/injection, schedule: Q01DX005 (ip), vehicle: saline): 87 % of control
T/C (dose: 50.0 mg/kg/injection, schedule: Q01DX005 (ip), vehicle: saline): 100 % of control
T/C (dose: 100.0 mg/kg/injection, schedule: Q01DX005 (ip), vehicle: saline): 87 % of control

CCCCN(C(C)(C)C(SSSC(c1ccc(Cl)cc1)C(C)(C)N(CCCC)S(C)(=O)=O)c1ccc(Cl)cc1)S(C)(=O)=O (stereo not drawn)
T/C (dose: 25.0 mg/kg/injection, schedule: Q04DX003 (ip), vehicle: saline with Tween-80): 100 % of control
T/C [4]: 100 % of control

O=P(NC12CC3CC(CC(C3)C1)C2)(N1CC1)N1CC1
T/C (dose: 2.2 mg/kg/injection, schedule: Q01DX009 (ip), vehicle: Klucel (hydroxypropylcellulose) (HPC)): 120 % of control
T/C (dose: 4.4 mg/kg/injection, schedule: Q01DX009 (ip), vehicle: Klucel (hydroxypropylcellulose) (HPC)): 183 % of control
T/C (dose: 6.6 mg/kg/injection, schedule: Q01DX009 (ip), vehicle: Klucel (hydroxypropylcellulose) (HPC)): 238 % of control and 154 % of control and 211 % of control
T/C (dose: 10.0 mg/kg/injection, schedule: Q01DX009 (ip), vehicle: Klucel (hydroxypropylcellulose) (HPC)): 244 % of control and 88 % of control and 122 % of control
T/C (dose: 15.0 mg/kg/injection, schedule: Q01DX009 (ip), vehicle: Klucel (hydroxypropylcellulose) (HPC)): 105 % of control

COc1cccc(OC)c1C1(O)c2c(OC)cccc2Oc2cccc(OC)c21
T/C (dose: 100.0 mg/kg/injection, schedule: Q01DX001 (ip), vehicle: Klucel (hydroxypropylcellulose) (HPC)): 95 % of control
T/C (dose: 200.0 mg/kg/injection, schedule: Q01DX001 (ip), vehicle: Klucel (hydroxypropylcellulose) (HPC)): 100 % of control
T/C (dose: 400.0 mg/kg/injection, schedule: Q01DX001 (ip), vehicle: Klucel (hydroxypropylcellulose) (HPC)): 104 % of control

CC1CC(N)=NC1C(=O)NCCC#N (stereo not drawn)
T/C [2]: 98 % of control
T/C (dose: 400.0 mg/kg/injection, schedule: Q01DX009 (ip), vehicle: saline with Tween-80): 98 % of control

CCOc1ccc(Br)cc1/C=N/NS(=O)(=O)c1ccc(C)cc1
T/C [5]: 109 % of control
T/C (dose: 176.0 mg/kg/injection, schedule: Q04DX003 (ip), vehicle: saline with Tween-80): 120 % of control
T/C [6]: 109 % of control
T/C (dose: 264.0 mg/kg/injection, schedule: Q04DX003 (ip), vehicle: saline with Tween-80): 120 % of control
T/C [7]: 120 % of control

CCCNC(=O)Nc1ccc(C)cc1C
T/C [5]: 100 % of control
T/C [6]: 95 % of control
T/C [7]: 100 % of control

O=[N+]([O-])c1cccc(/C=C/c2ccc(S(=O)(=O)F)cc2)c1
T/C [4]: 95 % of control
T/C [5]: 109 % of control
T/C [6]: 95 % of control
